Data from article PMC10584170, “Machine learning-based phenotypic imaging to characterise the targetable biology of Plasmodium falciparum male gametocytes for the development of transmission-blocking antimalarials” (PLOS Pathogens, 2023).

Assays:
[1] = tested on: P. falciparum male gametocytes; assay: P. falciparum Dual Gamete Formation Assay (PfDGFA), male readout (exflagellation); format: cell-based, Plasmodium falciparum NF54; conditions: for Average inhibition male (%): average of replicates; for % inhibition male (individual replicates) R1: replicate R1; for % inhibition male (individual replicates) R3: replicate R3; for % inhibition male (individual replicates) R4: replicate R4; for Activity: hit = >50% inhibition in male or female readout in at least 3 replicates, 0 = no class assigned
Method: (§1) P. falciparum NF54 (originally isolated from an imported malaria case in the Netherlands in the 1980s; BEI Resources, cat. No. MRA-1000) strain asexual parasites were maintained between 0.3–5% parasitaemia by regular passage in complete culture medium (RPMI supplemented with 25 mM HEPES, 50 μg ml^−1 hypoxanthine, 4.8 g l^−1 NaHCO3, 2mM L-glutamine, 5% pooled type AB serum, 0.5% Albumax II (Gibco)) at 4% haematocrit in washed whole blood (National Blood and Transfusion Service or Centro de Transfusiones de la Comunidad de Madrid CTCM) under a 1% O2/3% CO2/96% N2 environment. Gametocytes were induced by seeding culture flasks at 2% parasitaemia/4% haematocrit and subjecting them to daily medium changes for 14 days whilst maintaining a temperature of 37°C at all times. On Day 14, the maturity of gametocytes was assessed by quantifying male gametogenesis (exflagellation). A 20 μl sample of gametocyte culture was mixed with equal volume of ookinete medium (complete culture medium supplemented with 0.1 μM xanthurenic acid) at room temperature and transferred to a haemocytometer. After 20 min at room temperature, exflagellation was accurately quantified as described in Delves et al. 2016 [17].
(§2) The Pf DGFA was performed as described in Delves et al. 2016 [17]. […] Plates were then incubated for 24 h at 37°C in a humidified box under a 1% O2/3% CO2/96% N2 gas mix. Gametogenesis was triggered by addition of 10 μl per well of ookinete medium + 0.27 μg ml^-1 Cy3-labelled anti-Pfs25 antibody. Plates were incubated on a metal block at 4°C for 4 min to ensure even cooling, then 28°C for a further 4 min. Exflagellation was recorded by capturing 10 frames over 1 s under brightfield illumination using a x4 objective with a 1.5x zoom (effectively x6) attached to an automated Nikon Ti fluorescence microscope. After recording exflagellation, plates were incubated for a further 24 h in the dark at 28°C to ensure maximal expression of Pfs25 by female gametes. The plates were then returned to the microscope and female gametes imaged at x6 using fluorescence microscopy.
(§3) Exflagellation centres and female gametes were quantified using custom image analysis pipelines developed within ICY Bioimage Analysis (https://icy.bioimageanalysis.org/).

[2] = tested on: P. falciparum female gametocytes; assay: P. falciparum Dual Gamete Formation Assay (PfDGFA), female readout (Pfs25-positive female gametes); format: cell-based, Plasmodium falciparum NF54; conditions: for Average inhibition female (%): average of replicates; for % inhibition female (individual replicates) R1: replicate R1; for % inhibition female (individual replicates) R3: replicate R3; for % inhibition female (individual replicates) R4: replicate R4
Method: as §1, §2, §3

[3] = 2µM, 24h preincubation with gametocytes prior to induction of gametogenesis
[4] = 2µM, 24h preincubation, number of replicates with >50% inhibition in the male readout
[5] = 2µM, 24h preincubation, number of replicates with >50% inhibition in the female readout
[6] = PfDGFA at 2µM, 24h preincubation with gametocytes
[7] = 2µM, 24h preincubation, hits selected on >50% inhibition in the male readout across replicates
[8] = PfDGFA at 2µM, 24h preincubation
[9] = 2µM, 24h preincubation, hits selected on >50% inhibition in the female readout across replicates
[10] = PfDGFA at 2µM, 24h preincubation with gametocytes prior to induction of gametogenesis

Structure (SMILES)	Average inhibition male (%) [1, 3] [%]	% inhibition male (individual replicates) R1 [1, 3] [%]	% inhibition male (individual replicates) R3 [1, 3] [%]	% inhibition male (individual replicates) R4 [1, 3] [%]	HitlevelM [1, 4]	Average inhibition female (%) [2, 3] [%]	% inhibition female (individual replicates) R1 [2, 3] [%]	% inhibition female (individual replicates) R3 [2, 3] [%]	% inhibition female (individual replicates) R4 [2, 3] [%]	HitlevelF [2, 5]	also measured
CCc1c(CCNCCCCCCNCCc2ccc(OC)c(OC)c2CC)ccc(OC)c1OC.Cl [TCMDC-132047]	61.2	56.6	45.7	80.2	3	17.9	11.5	7.6	17.6	0	–
CCc1c(CCNCCCCCCNC(C)Cc2ccc3c(c2CC)OCO3)ccc(OC)c1OC.Cl (stereo not shown) [TCMDC-132052]	–	–	–	–	–	–	–	–	–	–	Average inhibition male (%) [1, 6]: 79.1%; % inhibition male (individual replicates) R1 [1, 6]: 84.5%; % inhibition male (individual replicates) R3 [1, 6]: 62.9%; % inhibition male (individual replicates) R4 [1, 6]: 90.9%; HitlevelM ([1]; number of replicates with >50% inhibition in the male readout, 2µM): 4; Average inhibition female (%) [2, 6]: 26.4%; % inhibition female (individual replicates) R1 [2, 6]: 34.8%; % inhibition female (individual replicates) R3 [2, 6]: 2.4%; % inhibition female (individual replicates) R4 [2, 6]: 23.2%; HitlevelF ([2]; number of replicates with >50% inhibition in the female readout, 2µM): 0
CCc1c(CCNCCCCCCNCCc2ccc([N+](=O)[O-])cc2)ccc(OC)c1OC.Cl [TCMDC-132066]	38.6	42.7	1.6	56.2	2	24.7	23.1	5.5	16.3	1	–
CCc1c(CCNCCCCCCNCc2ccc3c(c2CC)OCO3)ccc(OC)c1OC.Cl [TCMDC-132068]	39.4	42.2	19.5	56.9	–	13.2	18.0	-2.7	25.3	–	HitlevelM [1, 7]: 1; Activity [1, 8]: 0; HitlevelF [2, 9]: 0
COc1cc2c(c(Cl)c1OC)CCN(C(=O)C(F)(F)F)CC2c1ccccc1 (stereo not shown) [TCMDC-132071]	–	–	–	–	–	–	–	–	–	–	% inhibition male (individual replicates) R1 [1, 10]: 5.3%; % inhibition male (individual replicates) R3 [1, 10]: 19.8%; % inhibition male (individual replicates) R4 [1, 10]: -8.3%; Average inhibition male (%) [1, 8]: 3.7%; % inhibition female (individual replicates) R1 [2, 10]: 4.5%; % inhibition female (individual replicates) R3 [2, 10]: -4.3%; % inhibition female (individual replicates) R4 [2, 10]: 10.0%; Average inhibition female (%) [2, 8]: 2.1%
CCc1c(CCNCCCCCCNCCc2ccc3c(c2C)OCO3)ccc2c1OCO2.Cl [TCMDC-132093]	59.8	52.8	37.9	88.2	3	43.6	28.1	50.1	47.8	1	–
COc1ccc(-c2nc3c(N)nc(N)nc3nc2C(C)C)cc1 [TCMDC-132109]	-8.8	-5.9	-23.4	-14.5	–	17.4	48.8	-20.3	37.3	–	HitlevelM [1, 7]: 0; Activity [1, 8]: 0; HitlevelF [2, 9]: 0
Cl.N#Cc1c(F)cc(N2CCC(NCC[C@H](N)Cc3ccc(F)c(F)c3)CC2)cc1F [TCMDC-132121]	31.7	33.4	31.1	56.8	1	20.0	13.8	22.9	12.3	0	–
O=C(O)C(F)(F)F.O=S(=O)(NCCN1CCCC1)c1ccc(-c2cccc(CNC3Cc4ccccc4C3)c2)s1 [TCMDC-132217]	13.9	10.5	7.6	38.2	0	35.5	25.9	15.7	46.4	1	–
O=C(O)C(F)(F)F.O=S(=O)(NCCN1CCCC1)c1ccc(-c2cccc(CNC3Cc4ccccc4C3)c2)cc1F [TCMDC-132221]	11.1	3.1	–	19.5	0	29.0	30.1	27.5	20.7	0	–
COc1ccc(CNCc2ccc(F)cc2)cc1-c1cccc(S(=O)(=O)NCCN2CCCC2)c1.O=C(O)C(F)(F)F [TCMDC-132223]	-1.9	-0.6	2.2	-9.8	0	23.7	23.5	4.6	54.2	1	–
CN1CCC(NCc2ccc(-c3ccc(S(=O)(=O)NCc4ccccc4)cc3)cc2)CC1.O=C(O)C(F)(F)F [TCMDC-132227]	43.4	32.1	–	43.3	1	19.1	9.9	31.6	17.4	0	–
O=C(O)C(F)(F)F.O=S(=O)(NCCN1CCCC1)c1ccc(-c2ccc(CNC3Cc4ccccc4C3)cc2)cc1 [TCMDC-132229]	10.7	12.4	8.7	9.5	0	26.6	21.5	7.4	45.3	0	–
CN1CCC(NCc2ccc(-c3ccc(S(=O)(=O)NCc4ccccc4)s3)cc2)CC1.O=C(O)C(F)(F)F [TCMDC-132231]	34.4	32.6	–	32.4	–	9.7	17.2	1.4	10.3	–	HitlevelM [1, 7]: 0; Activity [1, 8]: 0; HitlevelF [2, 9]: 0
O=C(O)C(F)(F)F.O=S(=O)(NCCN1CCCC1)c1ccc(-c2ccc(CNC3Cc4ccccc4C3)cc2)s1 [TCMDC-132234]	17.3	15.3	1.0	34.9	0	29.4	25.4	5.2	45.9	0	–
